Tested on: OCI ovarian tumor lines (P7a, P2a, C2p) and ATCC/ECACC ovarian tumor lines (ES2 and OV90)
Assay: Alamar Blue viable cell assay with serial dilutions of paclitaxel or cisplatin, OCI vs ATCC/ECACC lines
Format: cell-based, human
Conditions: WIT-oc medium, 5000 cells/well, 72 hrs drug incubation
Procedure: The next day serial dilutions of paclitaxel were added to the plate.
The next day serial dilutions of cisplatin were added to the plate. […] There was a dramatic difference in the effect of the paclitaxel or cisplatin on OCI cell lines vs. ATCC/ECACC cell lines.
Cisplatin is an example of a chemotherapeutic drug that causes DNA cross linking. Cisplatin binds to DNA and chemically crosslinks the two strands, which causes DNA damage during cell division. This elicits repair mechanisms, which in turn activate apoptosis when repair proves impossible. We plated the OCI ovarian tumor lines (P7a, P2a, C2p) and ATCC/ECACC ovarian tumor lines (ES2 and OV90) in WIT-oc medium (5000 cells/well) in plates in triplicate. The next day serial dilutions of cisplatin were added to the plate.

With `N.N.[Cl][Pt][Cl]` [cisplatin] as the compound, how does the “concentration that produced a 50% decrease in tumor cell numbers (LD90), fold higher in OCI lines compared to ATCC/ECACC lines” value read?
Its value is “more than 6 fold”.
